Results from EP4582413A1, “ARYLTETRAHYDROPYRIDINE COMPOUND AND PEST CONTROL AGENT” (priority 2022, dated 2024).

Assays:
Format in all cases: in vivo
[1] = system: western flower thrips (Frankliniella occidentalis); assay: Insecticidal activity against western flower thrips; details: 500 ppm chemical solution sprinkled (2.5 mg/cm^2), larvae on common bean leaf, after 2 days; for mortality at 500 µg/mL: Frankliniella occidentalis, 48 h, read-out: death rate
Procedure: Wet filter paper was laid on each styrol cup having an inner diameter of 7 cm, and a common bean leaf cut into a 3 cm square was placed thereon, and inoculated with 20 western flower thrips (Frankliniella occidentalis) larvae. A 10% by mass emulsion of the presently invented compound prepared according to the above formulation example for an emulsion was diluted with water containing a spreader to prepare a chemical solution having a concentration of 500 ppm. For each styrol cup, 2.5 ml of the chemical solution prepared was sprinkled (2.5 mg/cm^2) with a rotary tower sprinkler. […] The test was carried out in duplicate.

[2] = system: brown rice planthoppers (Nilaparvata lugens); assay: Insecticidal test for brown rice planthoppers; details: 500 ppm chemical solution, rice leaf sheaths soaked, third-instar larvae, six days, 25°C; for mortality at 500 µg/mL: Nilaparvata lugens, 144 h, read-out: death rate; for death rate: 8640 min
Procedure: A 10% by mass emulsion of the presently invented compound prepared according to the above formulation example for an emulsion was diluted with water containing a spreader to prepare a chemical solution having a concentration of 500 ppm. Rice leaf sheaths were soaked in the chemical solution for approximately 10 seconds. After the completion of the soaking operation, the rice leaf sheaths treated with the chemical solution were air-dried, and then put in test tubes. Into each test tube, five third-instar brown rice planthoppers (Nilaparvata lugens) larvae were released, and the test tubes were capped with sponge and accommodated in a thermostatic room at 25°C. Six days after the accommodation, the number of dead brown rice planthoppers individuals in the test tubes were examined, and the death rate was calculated from a calculation formula shown below. The test was carried out in duplicate. [formula]

[3] = system: diamondback moths (Plutella xylostella); assay: Insecticidal test for diamondback moths; details: 500 ppm chemical solution, leaves soaked, third-instar larvae, six days, 25°C; for mortality at 500 µg/mL: Plutella xylostella, 144 h, read-out: death rate; for death rate: 8640 min
Procedure: A 10% by mass emulsion of the presently invented compound prepared according to the above formulation example for an emulsion was diluted with water containing a spreader to prepare a chemical solution having a concentration of 500 ppm. Chinese olive leaves were soaked in the chemical solution for approximately 10 seconds. After the completion of the soaking operation, the Chinese olive leaves treated with the chemical solution were air-dried, and then put in dishes. Into each dish, five third-instar diamondback moths (Plutella xylostella) larvae were released, and the dishes were capped and accommodated in a thermostatic room at 25°C. […] The test was carried out in duplicate.

[4] = system: cat fleas (Ctenocephalides felis); assay: whole plant or invertebrate; details: 72 h, read-out: death rate
Procedure: In 1 ml of acetone, 1 mg of the presently invented compound was dissolved to prepare a chemical solution having a concentration of 1000 ppm. The bottom surface and side surface of each glass container having an inner wall surface area of 25 cm^2 were coated with 250 µl of the chemical solution, and acetone was then volatilized to form a thin film of the compound on the inner wall of the glass container.
Into each of the treated glass containers, five cat fleas (Ctenocephalides felis) imagoes (mixed-sex) were released, and the glass containers were capped and accommodated in a thermostatic room at 25°C. Three days after the release, the number of dead flea individuals were examined, and the death rate was calculated from the same calculation formula as in Test Example 1.

Compound	mortality at 500 µg/mL [1] [%]	mortality at 500 µg/mL [3] [%]	mortality at 10 µg/cm2 [4] [%]	also measured
O=C(Nc1ccccn1)C1=C(O)CC(c2nc(-c3cccc(F)c3)no2)NC1=O (stereo not drawn) [3-185]	≥ 90	≥ 90	≥ 50	mortality at 500 µg/mL [2]: ≥ 90%
O=C(Nc1cc(F)ccn1)C1=C(O)CC(c2nc(-c3ccccn3)no2)NC1=O (stereo not drawn) [3-045]	≥ 90	–	≥ 50	mortality at 500 µg/mL [2]: ≥ 90%
O=C(Nc1ccc(F)cc1)C1=C(O)CC(c2cnc(Cl)c(-c3ccccc3)c2)NC1=O (stereo not drawn) [2-089]	≥ 90	≥ 90	≥ 50	mortality at 500 µg/mL [2]: ≥ 90%
CC(=O)c1ccc(-c2cc(C3CC(O)=C(C(=O)Nc4ccc(Cl)cn4)C(=O)N3)cnc2Cl)cc1 (stereo not drawn) [2-066]	–	–	–	death rate [3]: ≥ 90%
O=C(Nc1cc(Br)c(F)cn1)C1=C(O)CC(c2cnc(Cl)c(-c3cnccc3F)c2)NC1=O (stereo not drawn) [2-140]	≥ 90	≥ 90	≥ 50	mortality at 500 µg/mL [2]: ≥ 90%
O=C(Nc1ccccn1)C1=C(O)CC(c2nc(-c3snc(Cl)c3Cl)no2)NC1=O (stereo not drawn) [3-263]	≥ 90	≥ 90	≥ 50	mortality at 500 µg/mL [2]: ≥ 90%
COc1ccc(-c2cc(C3CC(O)=C(C(=O)Nc4ccc(Cl)nc4)C(=O)N3)cnc2Cl)cn1 (stereo not drawn) [2-017]	–	–	–	death rate [3]: ≥ 90%
Cc1ccnc(-c2noc(C3CC(O)=C(C(=O)Nc4ccc(F)cn4)C(=O)N3)n2)c1 (stereo not drawn) [3-153]	–	–	–	death rate [2]: ≥ 90%
O=C(Nc1nccs1)C1=C(O)CC(c2cnc(Cl)c(-c3cnccc3F)c2)NC1=O (stereo not drawn) [2-135]	≥ 90	≥ 90	≥ 50	mortality at 500 µg/mL [2]: ≥ 90%
Cc1cccc(-c2cc(C3CC(O)=C(C(=O)Nc4cccnc4F)C(=O)N3)cnc2Cl)c1 (stereo not drawn) [2-275]	–	–	≥ 50	–
O=C(Nc1cc(F)ccn1)C1=C(O)CC(c2nc(-c3ccc(Cl)c(F)c3)no2)NC1=O (stereo not drawn) [3-145]	≥ 90	≥ 90	≥ 50	–
CC(=O)c1ccc(NC(=O)C2=C(O)CC(c3cnc(Cl)c(-c4ccc(F)cc4)c3)NC2=O)cc1 (stereo not drawn) [2-295]	–	–	–	death rate [3]: ≥ 90%
O=C(Nc1ccc(F)cc1)C1=C(O)CC(c2nc(-c3ccc(F)cc3)no2)NC1=O (stereo not drawn) [3-010]	≥ 90	≥ 90	≥ 50	mortality at 500 µg/mL [2]: ≥ 90%
O=C(Nc1ccccn1)C1=C(O)CC(c2nc(-c3ccnc(F)c3)no2)NC1=O (stereo not drawn) [3-065]	≥ 90	≥ 90	≥ 50	mortality at 500 µg/mL [2]: ≥ 90%
O=C(Nc1cc(F)ccn1)C1=C(O)CC(c2nc(-c3c(F)cccc3Cl)no2)NC1=O (stereo not drawn) [3-143]	–	≥ 90	–	–
O=C(Nc1ccc([N+](=O)[O-])c(Cl)c1)C1=C(O)CC(c2nc(-c3ccnc(F)c3)no2)NC1=O (stereo not drawn) [3-120]	–	–	–	death rate [1]: ≥ 90%
Cc1ccc(NC(=O)C2=C(O)CC(c3nc(-c4ccnc(F)c4)no3)NC2=O)cc1Cl (stereo not drawn) [3-267]	≥ 90	–	–	–
O=C(Nc1ccc(F)cc1)C1=C(O)CC(c2nc(-c3cc(F)ccc3F)no2)NC1=O (stereo not drawn) [3-026]	≥ 90	≥ 90	≥ 50	mortality at 500 µg/mL [2]: ≥ 90%
C[S+]([O-])c1ccc(NC(=O)C2=C(O)CC(c3cnc(Cl)c(-c4ccc(Cl)nc4)c3)NC2=O)cc1 (stereo not drawn) [2-043]	–	–	–	death rate [2]: ≥ 90%
Cc1ccnc(NC(=O)C2=C(O)CC(c3nc(-c4ccccn4)no3)NC2=O)c1 (stereo not drawn) [3-152]	–	–	–	mortality at 500 µg/mL [2]: ≥ 90%
O=C(Nc1ncccn1)C1=C(O)CC(c2cnc(Cl)c(-c3ccc(F)cc3)c2)NC1=O (stereo not drawn) [2-238]	≥ 90	–	≥ 50	mortality at 500 µg/mL [2]: ≥ 90%
O=C(Nc1ccc(F)cc1)C1=C(O)CC(c2nc(-c3ccc(Cl)cc3)no2)NC1=O (stereo not drawn) [3-003]	≥ 90	≥ 90	≥ 50	–
N#Cc1ccc(NC(=O)C2=C(O)CC(c3cnc(Cl)c(-c4cncc(F)c4)c3)NC2=O)cc1 (stereo not drawn) [2-071]	≥ 90	–	≥ 50	mortality at 500 µg/mL [2]: ≥ 90%
O=C(Nc1nccnn1)C1=C(O)CC(c2cnc(Cl)c(-c3ccc(F)cc3)c2)NC1=O (stereo not drawn) [2-237]	–	–	–	death rate [3]: ≥ 90%

Compound	mortality at 500 µg/mL [1] [%]	mortality at 500 µg/mL [3] [%]	mortality at 10 µg/cm2 [4] [%]	also measured
O=C(Nc1ncc(C(F)(F)F)cn1)C1=C(O)CC(c2cnc(Cl)c(-c3cncc(F)c3)c2)NC1=O (stereo not drawn) [2-051]	–	–	–	death rate [2]: ≥ 90%
O=C(Nc1cnccn1)C1=C(O)CC(c2nc(-c3ccc(F)cn3)no2)NC1=O (stereo not drawn) [3-261]	≥ 90	–	–	mortality at 500 µg/mL [2]: ≥ 90%
Cc1cncc(-c2cc(C3CC(O)=C(C(=O)Nc4cnccn4)C(=O)N3)cnc2Cl)c1 (stereo not drawn) [2-148]	–	≥ 90	≥ 50	–
O=C(Nc1ccc(O)cc1)C1=C(O)CC(c2cnc(Cl)c(-c3ccc(F)cc3)c2)NC1=O (stereo not drawn) [2-241]	–	–	–	death rate [3]: ≥ 90%
O=C(Nc1ccc(Cl)nc1)C1=C(O)CC(c2nc(-c3ccccc3F)no2)NC1=O (stereo not drawn) [3-019]	–	–	–	death rate [3]: ≥ 90%
Cc1cccc(-c2cc(C3CC(O)=C(C(=O)Nc4nccnn4)C(=O)N3)cnc2Cl)c1 (stereo not drawn) [2-270]	–	–	≥ 50	–
C#Cc1ccc(NC(=O)C2=C(O)CC(c3cnc(Cl)c(-c4ccc(F)cc4)c3)NC2=O)cc1 (stereo not drawn) [2-243]	–	–	–	death rate [3]: ≥ 90%
COc1ccc(NC(=O)C2=C(O)CC(c3cnc(Cl)c(-c4cccc(C)c4)c3)NC2=O)cc1 (stereo not drawn) [2-258]	–	–	–	death rate [1]: ≥ 90%
Cc1ccc(NC(=O)C2=C(O)CC(c3nc(-c4ccsc4)no3)NC2=O)nc1 (stereo not drawn) [3-168]	–	–	–	death rate [2]: ≥ 90%
O=C(Nc1ccccn1)C1=C(O)CC(c2cnc(Cl)c(-c3ccc(F)cc3)c2)NC1=O (stereo not drawn) [2-226]	≥ 90	≥ 90	≥ 50	–
O=C(Nc1ccc(Cl)nn1)C1=C(O)CC(c2cnc(Cl)c(-c3cncc(F)c3)c2)NC1=O (stereo not drawn) [2-052]	–	–	–	death rate [2]: ≥ 90%
Cc1cncc(-c2noc(C3CC(O)=C(C(=O)Nc4ccc(F)cn4)C(=O)N3)n2)c1 (stereo not drawn) [3-130]	–	–	–	death rate [2]: ≥ 90%
Cc1csc(NC(=O)C2=C(O)CC(c3nc(-c4ccc(F)nc4)no3)NC2=O)n1 (stereo not drawn) [3-290]	–	–	–	death rate [2]: ≥ 90%
O=C(Nc1ncccc1F)C1=C(O)CC(c2nc(-c3cnccc3F)no2)NC1=O (stereo not drawn) [3-237]	–	≥ 90	≥ 50	mortality at 500 µg/mL [2]: ≥ 90%
O=C(Nc1ccc(F)cc1)C1=C(O)CC(c2nc(-c3ccc(C(F)(F)F)cc3)no2)NC1=O (stereo not drawn) [3-004]	–	–	–	death rate [3]: ≥ 90%
COc1ccc(-c2cc(C3CC(O)=C(C(=O)Nc4ccc(F)cc4)C(=O)N3)ccc2C(F)(F)F)cc1 (stereo not drawn) [1-018]	–	≥ 90	≥ 50	–
O=C(Nc1ccc(F)cc1)C1=C(O)CC(c2cnc(Cl)c(-c3ccc(F)cc3)c2)NC1=O (stereo not drawn) [2-229]	≥ 90	≥ 90	≥ 50	–
O=C(Nc1cc(F)ccn1)C1=C(O)CC(c2nc(-c3ccncn3)no2)NC1=O (stereo not drawn) [3-212]	–	≥ 90	≥ 50	–
Cc1ccoc1-c1noc(C2CC(O)=C(C(=O)Nc3ccc(F)cn3)C(=O)N2)n1 (stereo not drawn) [3-094]	–	–	–	death rate [2]: ≥ 90%
Cc1cccc(-c2cc(C3CC(O)=C(C(=O)Nc4ccc([N+](=O)[O-])cc4)C(=O)N3)cnc2Cl)c1 (stereo not drawn) [2-279]	≥ 90	≥ 90	≥ 50	–
Cc1ccc(NC(=O)C2=C(O)CC(c3cnc(Cl)c(-c4cccc(C)c4)c3)NC2=O)cc1 (stereo not drawn) [2-282]	≥ 90	≥ 90	≥ 50	–
O=C(Nc1ccc(C(F)(F)F)cn1)C1=C(O)CC(c2cnc(Cl)c(-c3ccc(F)cc3)c2)NC1=O (stereo not drawn) [2-230]	–	–	–	death rate [1]: ≥ 90%
O=C(Nc1nncs1)C1=C(O)CC(c2cnc(Cl)c(-c3ccc(F)cc3)c2)NC1=O (stereo not drawn) [2-239]	≥ 90	–	–	–
CC(C)(C)OC(=O)c1ccc(NC(=O)C2=C(O)CC(c3cnc(Cl)c(-c4ccc(F)cc4)c3)NC2=O)cc1 (stereo not drawn) [2-296]	≥ 90	–	–	–
